The record followed here is paper PMC6102549, “Synthesis and Evaluation of C15 Triene Urushiol Derivatives as Potential Anticancer Agents and HDAC2 Inhibitor” (Molecules : A Journal of Synthetic Chemistry and Natural …, 2018).

One assay has as its system LO2 cells. In words: MTT assay, toxic effect on normal liver cells LO2. It is filed as cell-based. The conditions noted are these: in vitro. The procedure: (§1) As shown in Figure 1 and Table 1, compounds 1–16 were evaluated for their inhibitory effects on the proliferation of HepG2 and LO2 cells by MTT assay. […] It provided the experimental basis for the subsequent synthesis of attenuating and improving urushiol derivatives.
(§2) Detection of cell proliferation by MTT
(§3) MTT assay was used to determine the inhibitory effect of the sample on the proliferation of HepG2 cells. The tumor cells of logarithmic growth stage were inoculated with 3.5 * 103 / well in 96 well culture plate. 0.2 ml/pore system was cultured for 72 h with different concentrations of samples. Then 20μL(final concentration 0.5 mg / mL) of MTT were added to each pore for 4 h. The supernatant was carefully adsorbed, DMSO 0.15 mL was added to each pore, and oscillatory mixing was carried out. The absorbance (A) value at 490 nm wavelength was measured by enzyme labeling instrument. The inhibition rate of cell proliferation was calculated as follows: [(A value of negative control group-A value of blank group)-(A value of experimental group A value of blank group)] / (negative pair group A-A value of blank group) × 100.Statistical method. The statistical analysis was carried out by SPSS 17.0 statistical software. The measured data were described by x ±s, and the mean of the two samples was compared with t test (P < 0. 05).
(§4) Materials and methods: Main reagents and instruments […]
(§5) Full-range rainbow […]
(§6) The HepG2 cells were cultured in a saturated humidity incubator with 90% […]
(§7) Jiangsu Kaiji Biotechnology Co., Ltd. Main reagents and consumables Cell culture bottle […]
(§8) Cell proliferation measured by MTT
(§9) 1) the cells were digested and counted, the cell suspension was prepared by 3 x 10^4 /ml, and 100 micron L cell suspension was added to each hole in the 96 hole cell culture plate.
(§10) 2) 96 hole cell culture plate was placed in 37, 5%, CO2 culture box for 24 hours.
(§11) 3) use the medium to dilute the drug to the desired working fluid concentration, add 100 micron l per hole to the corresponding drug medium, and establish a negative control group and a positive control group (paclitaxel, 20ug/ml).
(§12) 4) 96 hole cell culture plate was placed at 37 ℃ and 5% CO2 incubator for 72 hours.
(§13) 5) 96 hole board for MTT staining, lambda =490nm, OD value determination; a. 20 μL MTT (5mg/ml) per hole was added to the culture box for 4 hours. b. discarding the supernatant, adding 150 μL DMSO for each hole, and gently mixing the […]
(§14) c. lambda =490nm, ELISA od readout per hole, the inhibition rate was calculated.
(§15) 6) calculate the inhibition rate of each group.The inhibition rate (%) = (negative control group OD value of experimental group / OD) negative control group OD x 100% […]
(§16) 7 check the machine and record the red fluorescence at the excitation wavelength of 488nm.
(§17) Detection of apoptosis by Annexin-V FITC/PI double staining
(§18) (1) inoculate the logarithmic growth cells into the six-hole plate. The next day, after the cells are adhered to the wall, according to the group . The culture medium containing medicine was added and the negative control group was set up at the same time
(§19) (2) after 72 hours of treatment, the cells were digested with 0.25% trypsin (excluding […]
(§20) (3) 5 × 10 ~ 5 cells were collected by PBS washing cells twice (centrifugation 2000rpm for 5

In another assay the test system is HepG2 cells. In words: MTT assay, inhibition of proliferation of HepG2 cells. The format is cell-based, human. To be noted: for IC50: in vitro, 72 h. The procedure:
as §1, §2, §3, §4, §5, §6, §7, §8, §9, §10, §11, §12, §13, §14, §15, §16, §17, §18, §19, §20
In general terms: Tetrazolium assays rely on reduction of a dye to a coloured formazan, in cell work by metabolically active cells.

A word on the IC50: it is the concentration that gives 50% inhibition. Lower therefore signals inhibition by little substance.

For `C/C=C\C=C\C/C=C\CCCCCCCc1cccc(O)c1NS(C)(=O)=O` [Compound 9], the IC50 came out at 121 µM with LO2 cells (Homo sapiens, L02, 72 h) and 15 µM with HepG2 cells (Homo sapiens, HepG2, 72 h). In addition, the “inhibitory activity on HepG2 cells proliferation (in words)” value in the assay on HepG2 cells is “strong”.

For `C/C=C\C=C\C/C=C\CCCCCCCc1cccc2c1OC(C)(C(C)Br)O2` (centres unmarked) [Compound 7], the IC50 was more than 200 µM in the assay on LO2 cells (Homo sapiens, L02, 72 h) and 89.7 µM in the assay on HepG2 cells (Homo sapiens, HepG2, 72 h).

`C/C=C\C=C\C/C=C\CCCCCCCc1ccc2c(C)cc(=O)oc2c1OB(O)c1ccncc1` [Compound 15]: the IC50 in the assay with LO2 cells (Homo sapiens, L02, 72 h) is more than 200 µM; in the assay on HepG2 cells (Homo sapiens, HepG2, 72 h), 67 µM.

On to `C/C=C\C=C\C/C=C\CCCCCCCc1ccc2c(C)cc(=O)oc2c1O` [Compound 10, 8-hydroxy-4-methyl-7-((8Z,11E,13Z)-pentadeca-8,11,13-trien-1-yl)-2H-chro men-2-one], for which the IC50 in the assay on LO2 cells (Homo sapiens, L02, 72 h) was 180 µM; with LO2 cells (72 h), 198 µM; in the assay on HepG2 cells (Homo sapiens, HepG2, 72 h) it was approximately 28 µM; in the assay with HepG2 cells, 28.8 µM.

Take `C/C=C\C=C\C/C=C\CCCCCCCc1cccc2c1OB(c1ccccc1)O2` [Compound 4]: the IC50 in the assay on LO2 cells (Homo sapiens, L02, 72 h) is 181 µM. For the same compound, in the assay with HepG2 cells, the “inhibitory activity on HepG2 cells proliferation (in words)” value is “strong” and the IC50 turned out to be 15.3 µM.

For `C/C=C\C=C\C/C=C\CCCCCCCc1cccc2c1OB(C(=O)C(F)(F)C(F)(F)F)O2` [Compound 2], the IC50 in the assay with LO2 cells (Homo sapiens, L02, 72 h) is more than 200 µM; in the assay on HepG2 cells (Homo sapiens, HepG2, 72 h) it was 198 µM.

With `C/C=C\C=C\C/C=C\CCCCCCCc1ccc2c(C)cc(=O)oc2c1OB(O)c1ccnc(F)c1` [Compound 16], the IC50 is more than 200 µM in the assay on LO2 cells (Homo sapiens, L02, 72 h) and 151 µM in the assay on HepG2 cells (Homo sapiens, HepG2, 72 h).

Consider `C#CCOc1c(O)cccc1CCCCCCC/C=C\C/C=C/C=C\C` [Compound 3], for which the half-maximal inhibitory concentration (IC50) with LO2 cells (Homo sapiens, L02, 72 h) is more than 200 µM; in the assay on HepG2 cells (Homo sapiens, HepG2, 72 h), more than 200 µM.

Turning to `C/C=C\C=C\C/C=C\CCCCCCCc1cccc2c1OB(c1ccnc(F)c1)O2` [Compound 6], the IC50 in the assay on LO2 cells (Homo sapiens, L02, 72 h) is more than 200 µM; with HepG2 cells (Homo sapiens, HepG2, 72 h) it was more than 200 µM.

On to `C/C=C\C=C\C/C=C\CCCCCCCc1cccc2c1OB(c1ccncc1)O2` [Compound 5], for which the IC50 was more than 200 µM in the assay with LO2 cells (Homo sapiens, L02, 72 h) and 180 µM in the assay with HepG2 cells (Homo sapiens, HepG2, 72 h).

Turning to `C/C=C\C=C\C/C=C\CCCCCCCc1ccc2c(C)cc(=O)oc2c1OB(O)c1ccccc1` [Compound 14], the half-inhibitory concentration (IC50) in the assay on LO2 cells (Homo sapiens, L02, 72 h) is more than 200 µM; with HepG2 cells (Homo sapiens, HepG2, 72 h), 78.7 µM.
